From BindingDB's records for patent US20240148821 (Chugai Seiyaku Kabushiki Kaisha, 2024)
Numbered stars: 1 amine (or outer) side, 2 acyl side, 3 side chain; on linkers, the order of the positions; unused ones are H or OH. Bridge positions count the residues as written; N and C are the ends. Square brackets hold non-standard residues; d marks the D form. Peptide text beside a SMILES is read from it. * marks the point of attachment. ξ: configuration not given here. hPhe(3-Cl-4-CF3) = N[C@@H](CCc1ccc(C(F)(F)F)c(Cl)c1)C(=O)O; X101 = CN([C@@H](CCc1cscn1)C(=O)[*:2])[*:1]; NMedβ3hAla = C[C@H](CC(=O)[*:2])N(C)[*:1]; NMeGly(cPent) = CN[C@H](C(=O)O)C1CCCC1; NMehCha = CN[C@@H](CCC1CCCCC1)C(=O)O; NMeCha = CN[C@@H](CC1CCCCC1)C(=O)O; ξPro(4,4-F2) = O=C(O)C1CC(F)(F)CN1; NMeChg = CN[C@H](C(=O)O)C1CCCCC1; N(CH2CH2)2CF2 = FC1(F)CCN(*)CC1; NMeD = CN[C@@H](CC(=O)O)C(=O)O; NMeL = CN[C@@H](CC(C)C)C(=O)O; Cba = N[C@@H](CC1CCC1)C(=O)O; NMeV = CN[C@H](C(=O)O)C(C)C; Ac7c = NC1(C(=O)O)CCCCCC1; NMeA = CN[C@@H](C)C(=O)O; Piperidide = C1CCN(*)CC1; Pyrrolidide = C1CCN(*)C1; Ac5c = NC1(C(=O)O)CCCC1; ξAze = O=C(O)C1CCN1; ξP = O=C(O)C1CCCN1; Sar = CNCC(=O)O

The molecules below were run against GTPase KRas (G12D) and Son of Sevenless Homolog 1 (SOS) (Homo sapiens, UniProt P01116, G12D) (assay: AlphaScreen Assay).
Sequence of GTPase KRas (G12D) and Son of Sevenless Homolog 1 (SOS) (P01116 whole entry G12D): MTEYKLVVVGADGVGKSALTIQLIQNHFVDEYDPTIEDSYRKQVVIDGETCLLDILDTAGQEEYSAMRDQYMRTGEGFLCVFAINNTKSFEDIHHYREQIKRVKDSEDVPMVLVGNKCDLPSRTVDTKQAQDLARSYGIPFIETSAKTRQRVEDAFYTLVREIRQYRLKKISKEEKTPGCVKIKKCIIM
Sequence of GTPase KRas (G12D) and Son of Sevenless Homolog 1 (SOS) (Q07889 whole entry, further chain): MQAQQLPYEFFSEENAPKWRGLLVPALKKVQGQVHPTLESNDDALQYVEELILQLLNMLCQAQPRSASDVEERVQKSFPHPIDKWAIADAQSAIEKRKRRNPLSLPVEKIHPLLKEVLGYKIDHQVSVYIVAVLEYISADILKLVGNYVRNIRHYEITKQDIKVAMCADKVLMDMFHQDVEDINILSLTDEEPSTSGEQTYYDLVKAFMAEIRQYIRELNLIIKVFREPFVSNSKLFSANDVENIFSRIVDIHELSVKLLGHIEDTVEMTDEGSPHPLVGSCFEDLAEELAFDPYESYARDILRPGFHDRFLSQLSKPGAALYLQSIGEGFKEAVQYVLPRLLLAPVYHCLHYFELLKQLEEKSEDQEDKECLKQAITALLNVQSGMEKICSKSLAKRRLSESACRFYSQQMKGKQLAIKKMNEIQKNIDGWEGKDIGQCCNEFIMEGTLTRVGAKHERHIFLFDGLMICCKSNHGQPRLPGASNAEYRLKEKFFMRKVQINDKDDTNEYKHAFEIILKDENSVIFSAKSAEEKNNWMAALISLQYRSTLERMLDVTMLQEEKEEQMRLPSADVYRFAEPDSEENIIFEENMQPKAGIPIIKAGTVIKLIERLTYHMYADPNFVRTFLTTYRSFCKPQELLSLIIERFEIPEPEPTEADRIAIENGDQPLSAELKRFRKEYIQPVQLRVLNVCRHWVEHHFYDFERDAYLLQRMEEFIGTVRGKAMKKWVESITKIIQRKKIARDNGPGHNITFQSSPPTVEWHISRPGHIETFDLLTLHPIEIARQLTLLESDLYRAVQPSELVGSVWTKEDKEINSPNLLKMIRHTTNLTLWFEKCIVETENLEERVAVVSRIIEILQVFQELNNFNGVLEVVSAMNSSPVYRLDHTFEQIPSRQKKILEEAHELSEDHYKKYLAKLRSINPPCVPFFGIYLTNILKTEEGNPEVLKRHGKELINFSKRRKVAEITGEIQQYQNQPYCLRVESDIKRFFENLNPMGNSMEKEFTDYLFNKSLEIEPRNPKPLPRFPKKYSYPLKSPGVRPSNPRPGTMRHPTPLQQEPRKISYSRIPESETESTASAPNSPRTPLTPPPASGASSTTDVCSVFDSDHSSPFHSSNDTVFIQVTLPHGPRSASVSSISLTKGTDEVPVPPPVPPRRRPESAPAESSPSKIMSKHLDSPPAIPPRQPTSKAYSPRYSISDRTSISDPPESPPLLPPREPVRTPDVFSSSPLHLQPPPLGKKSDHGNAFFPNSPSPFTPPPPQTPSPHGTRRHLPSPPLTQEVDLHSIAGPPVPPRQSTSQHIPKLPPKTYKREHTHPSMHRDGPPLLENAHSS
Experimental: Protein-protein interaction inhibition (PPI) between Kras and SOS1 was measured by energy transfer from nickel-conjugated donor beads to streptavidin-conjugated acceptor beads using biotin-tagged human Kras expressed in E. coli and loaded with GDP after purification and His-tagged human SOS1 enzyme. This measurement utilizes the phenomenon in which donor beads are irradiated with light at 680 nm, such that energy is transferred to acceptor beads through singlet oxygen and light at 520-620 nm is detected from the acceptor beads.

`CC[C@H](C)[C@@H]1NC(=O)[C@H](CC(C)C)N(C)C(=O)C[C@@H](C(=O)N2CCCC2)N(C)C(=O)[C@H](C2CCCC2)N(C)C(=O)C2(CCCC2)NC(=O)[C@H](CC(=O)N2CCC(F)(F)CC2)N(C)C(=O)[C@H](CCc2ccc(C(F)(F)F)c(Cl)c2)NC(=O)CN(C)C(=O)[C@H](CCC2CCCCC2)N(C)C(=O)C2CCN2C(=O)[C@H](C)N(C)C1=O` (some centres undefined) [US20240148821, Compound 26] ([NMeL]I[NMeA][ξAze][NMehCha][Sar][hPhe(3-Cl-4-CF3)][NMeD](N(CH2CH2)2CF2)[Ac5c][NMeGly(cPent)][NMeD]-Pyrrolidide; lactam N-11) and `CC[C@H](C)[C@@H]1NC(=O)[C@H](CC(C)C)N(C)C(=O)C[C@@H](C(=O)N2CCCCC2)N(C)C(=O)[C@H](C2CCCCC2)N(C)C(=O)C2(CCCC2)NC(=O)[C@H](CCc2cscn2)N(C)C(=O)[C@H](CCc2ccc(C(F)(F)F)c(Cl)c2)NC(=O)CN(C)C(=O)[C@H](CC2CCCCC2)N(C)C(=O)CN(C)C(=O)CN(C)C1=O` [US20240148821, Compound 500] ([NMeL]I[Sar][Sar][NMeCha][Sar][hPhe(3-Cl-4-CF3)][X101][Ac5c][NMeChg][NMeD]-Piperidide; lactam N-11) are within 1.5-fold of each other in IC50: 4.3 nM for the first, 4.8 nM for the second.

Compared with `CC(C)C[C@H]1C(=O)N[C@@H](C2CC2)C(=O)N(C)CC(=O)N(C)CC(=O)N(C)[C@@H](CCC2CCCCC2)C(=O)N(C)CC(=O)N[C@@H](CCc2ccc(C(F)(F)F)c(Cl)c2)C(=O)N2CCCC2C(=O)NC2(CCCC2)C(=O)N(C)[C@@H](C(C)C)C(=O)N[C@H](C)CC(=O)N1C` (some centres undefined) [US20240148821, Compound 101], `CC[C@H](C)[C@@H]1NC(=O)[C@H](CCC2CCC2)N(C)C(=O)C[C@@H](C)NC(=O)[C@H](C(C)C)N(C)C(=O)C2(CCCC2)NC(=O)C2CCCN2C(=O)[C@H](CCc2ccc(C(F)(F)F)c(Cl)c2)NC(=O)CN(C)C(=O)[C@H](CC2CCCCC2)N(C)C(=O)CN(C)C(=O)CN(C)C1=O` (some centres undefined) [US20240148821, Compound 230] is 4.1-fold lower in IC50: 160 nM for the first, 39 nM for the second.

First: CC[C@H](C)[C@@H]1NC(=O)[C@H](CC(C)C)N(C)C(=O)C[C@@H](C)N(C)C(=O)[C@H](C2CCCC2)N(C)C(=O)C2(CCCC2)NC(=O)C2CC(F)(F)CN2C(=O)[C@H](CCc2ccc(C(F)(F)F)c(Cl)c2)NC(=O)CN(C)C(=O)[C@H](CCC2CCCCC2)N(C)C(=O)CN(C)C(=O)CN(C)C1=O (some centres undefined) [US20240148821, Compound 107] (cyclo([Ac5c][NMeGly(cPent)][NMedβ3hAla][NMeL]I[Sar][Sar][NMehCha][Sar][hPhe(3-Cl-4-CF3)][ξPro(4,4-F2)]))
Second: C#CCC[C@H]1C(=O)N[C@@H]([C@@H](C)CC)C(=O)N(C)CC(=O)N(C)CC(=O)N(C)[C@@H](CCc2ccc(I)cc2)C(=O)N(C)CC(=O)N[C@@H](CCc2ccc(C(F)(F)F)c(Cl)c2)C(=O)N2CCCC2C(=O)NC2(CCCC2)C(=O)N(C)[C@@H](C2CCCCC2)C(=O)N[C@H](C)CC(=O)N1C (some centres undefined) [US20240148821, Compound 300]
The IC50 of the first is 2.4-fold lower: 4 nM for the first, 9.5 nM for the second.

Compared with `CCCC[C@@H]1NC(=O)[C@H](Cc2cccc(I)c2)NC(=O)CN(CC)C(=O)[C@H](Cc2ccc(Cl)cc2)N(CC)C(=O)CN(CC)C(=O)CN(CC)C(=O)[C@H]([C@@H](C)CC)NC(=O)[C@H](CC(C)C)N(CC)C(=O)CC(C(=O)N2CCCCC2)N(CC)C(=O)[C@H](CC(C)C)NC(=O)[C@H](Cc2ccccc2OC(F)(F)F)N(CC)C1=O` (some centres undefined) [US20240148821, Compound 111], `CC[C@H](C)[C@@H]1NC(=O)[C@H](CC(C)C)N(C)C(=O)C[C@@H](C)NC(=O)[C@H](CC(C)C)N(C)C(=O)C(C)(C)NC(=O)[C@H](CC(C)C)N(C)C(=O)[C@H](CCc2cc(F)c(C(F)(F)F)c(F)c2)NC(=O)CN(C)C(=O)[C@H](C(=O)CC2CCCCC2)N(C)C(=O)CN(C)C(=O)CN(C)C1=O` [US20240148821, Compound 119] is 2.6-fold lower in IC50: 100 nM for the first, 39 nM for the second. The second is the more potent here.

`CC(C)C[C@H]1C(=O)N[C@@H](CC2CCC2)C(=O)N(C)CC(=O)N(C)CC(=O)N(C)[C@@H](CC2CCCCC2)C(=O)N(C)CC(=O)N[C@@H](CCc2ccc(C(F)(F)F)c(Cl)c2)C(=O)N2CCCC2C(=O)NC2(CCCCCC2)C(=O)N(C)[C@@H](C(C)C)C(=O)N(C)[C@H](C(=O)N2CCCCC2)CC(=O)N1C` (some centres undefined) [US20240148821, Compound 451] ([NMeL][Cba][Sar][Sar][NMeCha][Sar][hPhe(3-Cl-4-CF3)][ξP][Ac7c][NMeV][NMeD]-Piperidide; lactam N-11) gave an IC50 of 10 nM.
